# The source made the active and inactive calls. No rule for the calls is given here.
# Legend:
# hERG (Kv11.1, KCNH2) [1] = target: T1, hERG (Kv11.1, KCNH2) (Homo sapiens, UniProt Q12809); test: in vitro
# Description: MMV: Malaria Box compounds were tested for inhibition of the human ether a go-go related gene (hERG), Kv11.1 channel, using IonWorks 384-well patch clamp electrophysiology at 11.1uM (3 independent assay plates up to 12 cells per concentration).
# hERG (Kv11.1, KCNH2) [2] = target: T1, hERG (Kv11.1, KCNH2); test: in vitro; remark: listed apart in the source
# Description: MMV: Malaria Box compounds were tested for inhibition of the human ether a go-go related gene (hERG), Kv11.1 channel, using IonWorks 384-well patch clamp electrophysiology at 1.1uM (3 independent assay plates up to 12 cells per concentration).
# T1 sequence (Q12809 whole entry): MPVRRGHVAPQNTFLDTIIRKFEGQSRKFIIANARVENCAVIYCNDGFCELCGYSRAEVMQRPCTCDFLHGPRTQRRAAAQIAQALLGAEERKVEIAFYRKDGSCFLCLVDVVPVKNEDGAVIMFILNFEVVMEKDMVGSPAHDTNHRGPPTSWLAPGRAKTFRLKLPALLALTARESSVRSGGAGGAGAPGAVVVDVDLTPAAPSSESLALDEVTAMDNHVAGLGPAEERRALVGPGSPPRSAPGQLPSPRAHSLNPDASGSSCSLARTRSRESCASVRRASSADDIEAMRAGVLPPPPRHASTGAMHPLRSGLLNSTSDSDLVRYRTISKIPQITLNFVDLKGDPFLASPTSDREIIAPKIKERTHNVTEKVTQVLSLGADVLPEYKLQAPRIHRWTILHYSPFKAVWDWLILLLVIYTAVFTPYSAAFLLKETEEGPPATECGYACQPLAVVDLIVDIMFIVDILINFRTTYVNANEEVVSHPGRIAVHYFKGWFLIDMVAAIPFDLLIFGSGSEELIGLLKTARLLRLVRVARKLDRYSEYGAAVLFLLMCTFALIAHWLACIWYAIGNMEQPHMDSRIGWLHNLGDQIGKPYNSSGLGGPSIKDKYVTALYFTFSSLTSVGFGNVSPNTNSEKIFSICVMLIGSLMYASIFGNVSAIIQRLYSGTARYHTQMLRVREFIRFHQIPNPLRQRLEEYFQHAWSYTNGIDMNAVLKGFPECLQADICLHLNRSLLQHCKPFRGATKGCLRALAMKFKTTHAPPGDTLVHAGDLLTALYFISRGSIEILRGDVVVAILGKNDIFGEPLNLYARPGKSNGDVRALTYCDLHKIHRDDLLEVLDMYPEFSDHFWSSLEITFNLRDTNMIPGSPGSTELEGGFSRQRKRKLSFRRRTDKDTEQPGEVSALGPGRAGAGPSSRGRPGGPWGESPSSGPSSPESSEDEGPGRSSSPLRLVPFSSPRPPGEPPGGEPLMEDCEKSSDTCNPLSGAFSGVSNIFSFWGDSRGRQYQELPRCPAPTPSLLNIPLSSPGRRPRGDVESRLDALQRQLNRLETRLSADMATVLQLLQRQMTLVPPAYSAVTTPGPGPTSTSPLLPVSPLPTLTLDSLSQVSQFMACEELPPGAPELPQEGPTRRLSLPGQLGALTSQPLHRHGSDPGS
Compound,"inhibition at 11.1 µM (hERG (Kv11.1, KCNH2) [1])","inhibition at 1.1 µM (hERG (Kv11.1, KCNH2) [2]) [%]"
Cc1cc(C)c2nc(N3CCC(C(=O)NCCCN4CCC(N5CCCCC5)CC4)CC3)sc2c1,60% (active),18
CCN(CC)CCCNc1nc(-c2ccc(Cl)cc2)nc2ccccc12,94% (active),8
Cc1cc(Nc2ccc(C)c(Cl)c2)n2nc(C(F)(F)F)nc2n1,72% (active),23
Cc1cc(NCCN2CCCCC2)c2ccc3ccccc3c2n1,95% (active),32
O=C(NCc1ccco1)C1CCN(S(=O)(=O)c2ccc(Br)cc2)CC1,34%,21
CC(C)(C)c1ccc2c(c1)CN(Cc1ccc(Cl)cc1)CO2,12% (inactive),25
Cc1ccc(Nc2nc(NCCO)c3ccccc3n2)cc1C,81% (active),> 12
Cc1ccc(-c2cc(C(=O)Nc3ccc(S(=O)(=O)N4CCCCC4)cc3)[nH]n2)c(O)c1,8% (inactive),-1
N#Cc1nc(Cc2cccc3ccccc23)oc1N1CCN(C(c2ccccc2)c2ccccc2)CC1,13% (inactive),15
CCOC(=O)c1cnc2c(C)cccc2c1Nc1ccc(C(C)=O)cc1,39%,6
COc1ccc(C(=O)NC(c2ccc(Cl)cc2Cl)c2cc(Cl)c3cccnc3c2O)cc1 (centres undefined),-12% (inactive),-3
O=C(Nc1ccc(Cl)cc1C(=O)Nc1ccncc1)c1ccc(Cl)cc1Cl,39%,4
COc1ccc(N2CCN(C(CNC(=O)C3CCCCC3)c3ccc4c(c3)OCO4)CC2)cc1 (centres undefined),51% (active),17
OC(CNC1CCCC1)Cn1c2ccccc2c2ccccc21 (centres undefined),55% (active),8
COc1ccc(-c2nonc2NC(=O)c2cccc(C)c2)cc1OC,-3% (inactive),5
Cc1cccc(N2C(=O)C3C(C2=O)C2(c4ccccc4)C(=O)C3(c3ccccc3)C(c3ccc4c(c3)OCO4)=C2c2ccc3c(c2)OCO3)c1 (centres undefined),2% (inactive),-14
Oc1ccc(-c2nc(-c3ccc4oc5ccc(-c6[nH]c(-c7ccc(O)cc7)nc6-c6ccccc6)cc5c4c3)c(-c3ccccc3)[nH]2)cc1,54% (active),12
CCN(CC)CCNc1ccnc2cc3ccccc3cc12,6% (inactive),9
Oc1ccc(Br)cc1CN1CCN(Cc2ccc(Cl)cc2)CC1,10% (inactive),2
Cc1ccc2cc3c(N)c4c(C)ccc(C)c4nc3nc2c1,60% (active),16
CCOC(=O)C1=C(C)N=c2sc(=Cc3ccccc3O)c(=O)n2C1c1ccc(OC)c2ccccc12 (centres undefined),2% (inactive),13
C[n+]1c2ccccc2nc2ccc(NCCO)cc21,11% (inactive),8
COc1cccc(Nc2nc(N)c3ccccc3n2)c1,9% (inactive),10
CCCOCc1cc(CN2CCN(c3cccc(Cl)c3)CC2)c(O)c2ncccc12,106% (active),3

Compound,"inhibition at 11.1 µM (hERG (Kv11.1, KCNH2) [1])","inhibition at 1.1 µM (hERG (Kv11.1, KCNH2) [2]) [%]"
Cc1cc(Nc2ccc(OCc3ccccc3)cc2)nc2cc(O)ccc12,108% (active),-2
COc1ccc2c(c1)C1(Nc3ccccc3-c3nc4ccccc4n31)C(=O)N2 (centres undefined),20% (inactive),4
Oc1ccccc1CNCC12CC3CC(CC(C3)C1)C2,41%,20
CCCC(c1nnnn1C1CCCCC1)N1CCN(C(=O)c2ccco2)CC1 (centres undefined),52% (active),3
O=C(Nc1cccc(C2=NCCN2)c1)Nc1cccc(C2=NCCN2)c1 [IMIDOCARB],110%,59
Cc1ccc(N2C3c4ccccc4N(S(=O)(=O)c4ccc(C)cc4)C2c2ccccc2N3S(=O)(=O)c2ccc(C)cc2)cc1,18% (inactive),18
COc1ccc(OC)c(C2C3=C(CC(C)(C)CC3=O)N(c3ccc(Cl)c(Cl)c3)C3=C2C(=O)CC(C)(C)C3)c1,27%,21
COc1ccc(C2N(C)c3ccccc3N2C)cc1,-5% (inactive),-13
COc1ccc(C2c3ccc4ccccc4c3Oc3ncn(CCCn4ccnc4)c(=N)c32)cc1OC (centres undefined),25%,23
CCCCNCC(O)(c1ccc(Cl)cc1)c1ccc(Cl)cc1,95% (active),30
Cc1ccc(CN2CCC(C(=O)Nc3ccc(-c4cc5ccccc5[nH]4)cc3)CC2)o1,88% (active),9
CC(C)CNC(=O)c1c(N)n(CCc2ccccc2F)c2nc3ccccc3nc12,-11% (inactive),17
CCOc1ccc(Nc2ccnc3cc(Cl)ccc23)cc1,26%,5
COc1cc2c(cc1OC)C1=NNC(=O)C1=NC(C)(C)C2,11% (inactive),9
COc1cccc(-c2nn(C)c3sc(C(=O)NCCN4CCN(c5ccccc5F)CC4)cc23)c1,91% (active),21
Cc1cc(C=C2SC(=Nc3ccccc3)N(C3CCCC3)C2=O)c(C)n1-c1ccc(Cl)cc1,-5% (inactive),5
O=C(Nc1cccc(-c2nc3ccccc3[nH]2)c1)c1cccc(NC(=O)c2ccco2)c1,6% (inactive),-6
COc1ccc(NC(=O)C2c3ccccc3C(=O)N(CC(C)C)C2c2cccs2)cc1 (centres undefined),18% (inactive),7
O=C(Nc1ccccc1O)c1ccc(-c2ccc(Cl)cc2Cl)o1,3% (inactive),1
Cc1cc(Nc2ccc3ccccc3c2)n2ncnc2n1,25% (inactive),9
O=C(Nc1ccc(-c2nc3cc(NC(=O)c4ccc(Cl)cc4)ccc3[nH]2)cc1)c1ccc(Cl)cc1,28%,-9
OC(CNC1CCCCC1)Cn1c2ccccc2c2ccccc21 (centres undefined),23% (inactive),14
CCCCN(CCCC)S(=O)(=O)c1ccc(NC(=O)c2ccco2)cc1,30%,13
COc1ccc(CCNC(=O)c2cc(S(=O)(=O)N3CC(C)CC(C)C3)ccc2Sc2ccc(F)cc2)cc1OC (centres undefined),5% (inactive),10

Compound,"inhibition at 11.1 µM (hERG (Kv11.1, KCNH2) [1])","inhibition at 1.1 µM (hERG (Kv11.1, KCNH2) [2]) [%]"
O=C(NC1CCN(Cc2ccccc2)CC1)c1cc(-c2ccncc2)nc2ccc(Cl)cc12,72% (active),14
CCCCCCn1c(=N)n(CC(O)COc2cccc(C)c2)c2ccccc21 (centres undefined),111%,57
COCCN(C(=O)Cc1cccs1)C(C(=O)NCc1ccc(OC)cc1)c1ccc(C(C)C)cc1 (centres undefined),52% (active),11
CCOC(=O)c1cnc2ccc(CC)cc2c1O,12% (inactive),1
Cc1cc(=O)oc2c1ccc1oc(C(=O)c3ccccc3)c(C)c12,6% (inactive),-6
CCCCC(O)(c1ccc(Cl)cc1)C(CN1CCOCC1)c1ccc(Cl)cc1 (centres undefined),35%,18
Clc1ccc2[nH]c3c(NCCCN4CCOCC4)ncnc3c2c1,89% (active),29
CCC1(C)CC(CCNCc2ccccc2O)(c2ccc(C)cc2)CCO1 (centres undefined),73% (active),2
CC(C)(C)c1ccc(C(=O)Nc2nc3ccccc3s2)cc1,7% (inactive),-3
CC(NCc1ccccc1)c1cc(Cl)ccc1O (centres undefined),35%,-4
Cn1c(=O)n(C)c2cc(CNCCNc3ccnc4cc(Cl)ccc34)ccc21,60% (active),16
CC(=O)c1sc(NC(=O)Nc2ccc(C)cc2C)nc1C,38%,7
c1ccc(Cn2c(N=Nc3c(Nc4ccccc4)ccc4ccccc34)nc3ccccc32)cc1,-2% (inactive),-2
CCn1c(CN2CCN(Cc3ccccc3)CC2)nc2cc(NC(=O)c3cccs3)ccc21,100%,71
CC(O)(c1ccc(Cl)cc1)C(CN1CCCCC1)c1ccccc1 (centres undefined),84% (active),40
CCOC(=O)c1ccc2[nH]c(-c3ccccc3)cc(=O)c2c1,7% (inactive),-1
Cc1cc(C)cc(Nc2cc(C)nc3nc(C(F)(F)F)nn23)c1,40%,20
Oc1ccc2ccccc2c1CNc1nc2ccccc2[nH]1,21% (inactive),-5
CCOc1cc2c(cc1OCC)C(c1cc(Cl)ccc1O)NCC2 (centres undefined),20% (inactive),1
O=C(CCl)NCCOc1ccc(Cl)cc1Cl,62% (active),1
COc1ccccc1CNC(=O)C1c2ccccc2C(=O)N(CC(C)C)C1c1cccs1 (centres undefined),17% (inactive),-15
Cc1ccc(C2CC(C(F)(F)F)n3nc(C(=O)N4CCN(C(c5ccccc5)c5ccccc5)CC4)cc3N2)cc1 (centres undefined),8% (inactive),5
O=C(CCc1ccco1)NC1CCN(CC2(c3ccc(Cl)cc3)CCC2)CC1,65% (active),10
CN(C)CCNc1cc(-c2ccccc2)nc2ccccc12,66% (active),20

# From ChEMBL document CHEMBL3301458, “MMV Malaria Box hERG screening”
